Experimental data taken from article PMC3779320, “Bub3 reads phosphorylated MELT repeats to promote spindle assembly checkpoint signaling” (eLife, 2013).
Square brackets hold non-standard residues; d marks the D form. Peptide text beside a SMILES is read from it. pT = C[C@@H](OP(=O)(O)O)[C@H](N)C(=O)O

Tests used:
Bub1^289–359–Bub3^R217A = target: T1, Bub1^289–359–Bub3^R217A (Saccharomyces cerevisiae, UniProt P26449+P41695, R217A); assay: ITC binding to Bub1^289–359–Bub3^R217A; settings: Bub3 R217A compared with wild type (13- to 25-fold for R217A or R239A)
T1 construct: S. cerevisiae Bub1^289–359 and for full length Bub3; GST (N, cleaved yes); made in house; host or cells: E. coli BL21 DE3 plysS
T1 sequence (P26449 1-341 R217A): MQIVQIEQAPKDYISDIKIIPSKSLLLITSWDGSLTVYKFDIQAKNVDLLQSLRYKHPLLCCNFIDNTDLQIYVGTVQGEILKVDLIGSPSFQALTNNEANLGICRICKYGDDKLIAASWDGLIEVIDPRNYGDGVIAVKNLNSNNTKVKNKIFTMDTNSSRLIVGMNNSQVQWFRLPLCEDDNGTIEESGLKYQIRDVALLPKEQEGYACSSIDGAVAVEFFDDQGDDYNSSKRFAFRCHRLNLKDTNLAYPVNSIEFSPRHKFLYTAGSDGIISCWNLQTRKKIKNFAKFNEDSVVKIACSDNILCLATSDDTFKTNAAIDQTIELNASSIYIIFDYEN
T1 sequence (P41695 289-359): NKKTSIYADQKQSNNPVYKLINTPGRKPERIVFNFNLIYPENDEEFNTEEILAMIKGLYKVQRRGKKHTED
From the text: Because the presence of a phosphate on Thr172^Spc105/Knl1 is essential for high-affinity binding of ScBub1^289–359–Bub3 to MELT^P peptides (Figure 1), we concentrated our mutational analysis on two residues that are directly implicated in the recognition of the peptide’s phospho-threonine, Arg217^Bub3 and Arg239^Bub3. Positively charged residues are invariant at these positions of the Bub3 alignment (Figure 2C). We generated single or double alanine mutants of Arg217^Bub3 and Arg239^Bub3 in the context of ScBub1^289–359–Bub3 and tested their binding affinity for the MELT2^P peptide by ITC.
cDNA sequences coding for S. cerevisiae Bub1^289–359 and for full length Bub3 were subcloned in the first and second cassettes of pGEX-6P-2rbs vector ([Ciferri et al., 2005]). In this construct, the cDNA encoding Bub1^289–359 was sub-cloned in frame with the gene encoding GST and a cleavage site for PreScission protease, and was translated from the first ribosome-binding site (rbs). Untagged Bub3 was subcloned downstream of the second rbs in the same vector. Expression was carried out in BL21 DE3 plysS cells in LB medium by auto-induction with 0.3% lactose at 18°C for approximately 16 hr. […]
Binding isotherm was measured at 25°C by isothermal titration calorimetry on a MicroCal ITC200 device (GE Healthcare, Piscataway, NJ). […]

Bub1^289–359–R314A–Bub3 = target: T2, Bub1^289–359–R314A–Bub3 (Saccharomyces cerevisiae, UniProt P26449+P41695, R314A); format: binding; settings: ITC; Bub3-Bub1^R314A mutant compared to wild type Bub3–Bub1; MELT4^P: data not shown
T2 construct: S. cerevisiae Bub1^289–359 and for full length Bub3; ITC experiment with the MELT2^P peptide and the Bub1^289–359–R314A–Bub3 complex; GST (N, cleaved yes); made in house; host or cells: E. coli BL21 DE3 plysS
T2 sequence (P26449 whole entry): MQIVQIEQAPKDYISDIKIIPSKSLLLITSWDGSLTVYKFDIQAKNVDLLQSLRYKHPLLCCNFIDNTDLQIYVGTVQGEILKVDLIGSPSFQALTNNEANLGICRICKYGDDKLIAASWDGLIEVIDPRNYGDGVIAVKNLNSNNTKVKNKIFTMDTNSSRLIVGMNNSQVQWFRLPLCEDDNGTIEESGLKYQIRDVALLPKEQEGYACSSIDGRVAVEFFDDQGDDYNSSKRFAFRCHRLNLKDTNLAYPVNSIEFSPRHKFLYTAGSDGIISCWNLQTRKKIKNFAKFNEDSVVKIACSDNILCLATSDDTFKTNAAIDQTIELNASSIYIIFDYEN
T2 sequence (P41695 289-359 R314A): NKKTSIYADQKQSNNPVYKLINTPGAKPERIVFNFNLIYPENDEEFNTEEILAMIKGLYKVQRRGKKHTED
From the text: Such function of Bub1 is probably exerted primarily through its structuring effects on the 4-stranded β-sheet ‘roof’ that dominates the peptide-binding region of Bub3 and which restrains the position of the positively charged residues in the ‘north’ area of the MELT^P-binding site (Figure 4E). Additionally, we observe that Arg314^Bub1, in the β1-β2 loop, contributes to the interaction with the phosphate group of P-Thr172^Spc105/Knl1 (the interaction, however, is only observed in one of the two complexes in the asymmetric unit, and in proximity of a crystal contact) and is therefore directly engaged in the interaction with the MELT2^P peptide. In ITC measurements, we observed a ∼fourfold reduction in the binding affinity of the Bub3-Bub1^R314A mutant for the MELT2^P peptide, in agreement with a role of Arg314^Bub1 is in the interaction of the Bub1-Bub3 complex with MELT2^P (Figure 4F). Similarly, Bub3–Bub1^R314A bound the MELT4^P with ∼threefold decreased affinity compared to wild type Bub3–Bub1 (data not shown).
Binding isotherm was measured at 25°C by isothermal titration calorimetry on a MicroCal ITC200 device (GE Healthcare, Piscataway, NJ). All samples were extensively dialysed into fresh GF buffer (20 mM Tris pH7.5, 150 mM NaCl, 1 mM DTE). […]

In the case of `CC[C@H](C)[C@H](NC(=O)[C@H](CO)NC(=O)[C@H](CCCNC(=N)N)NC(=O)[C@@H]1CCCN1C(=O)[C@H](Cc1ccccc1)NC(=O)[C@@H](NC(=O)[C@H](CCC(=O)O)NC(=O)[C@@H](NC(=O)[C@H](CCSC)NC(=O)[C@H](CCC(=O)O)NC(=O)[C@H](CCSC)NC(=O)[C@H](CO)NC(=O)[C@@H](NC(=O)[C@@H]1CCCN1C(=O)[C@H](CC(=O)O)NC(C)=O)[C@@H](C)O)[C@@H](C)OP(=O)(O)O)C(C)C)C(=O)N[C@@H](CCCNC(=N)N)C(=O)N[C@@H](CCC(N)=O)C(=O)N[C@@H](CCCCN)C(=O)N[C@@H](CC(N)=O)C(N)=O` [MELT2^P] (Ac-DPTSMEM[pT]EVFPRSIRQKN-NH2; N-terminus and C-terminus assumed), the “fold reduction in binding affinity” value (Bub1^289–359–Bub3^R217A) is reported as 13 fold and the “fold reduction in binding affinity” value (Bub1^289–359–R314A–Bub3) is reported as “fourfold”.
